Experimental data taken from article PMC6369240, “Biological evaluation and structure activity relationship of 9-methyl-1-phenyl-9H-pyrido[3,4-b]indole derivatives as anti-leishmanial agents” (Bioorganic Chemistry, 2019).

Tests used:
[1] = system: L. donovani LdBOB axenic amastigotes; experiment: L. donovani axenic amastigote assay (Alamar blue); type: cell-based, Leishmania donovani; settings: for S.I (CC50/IC50), L. donovani axenic amastigote: HeLa CC50 / L. donovani axenic amastigote EC50; for EC50: Leishmania donovani, 72 h, Alamar blue
Protocol: (§1) L. donovaniLdBOB axenic amastigotes or L. infantum JPCM5 MCAN/ES/98/LLM-87 were cultured at 37 °C in modified Eagle’s medium (HOMEM; L. infantum) and axenic amastigotes were incubated for 72 h with compounds, followed by Alamar blue-based assay as previously described.

[2] = system: L. donovani promastigotes; experiment: L. donovani promastigote assay (Alamar blue); type: cell-based, Leishmania donovani; settings: for S.I (CC50/IC50), L. donovani promastigote: HeLa CC50 / L. donovani promastigote EC50; for EC50: Leishmania donovani, 72 h, Alamar blue
Protocol: (§2) Anti-leishmanial activity of these analogues was determined by evaluating their inhibition activity against both promastigote, amastigote forms of Leishmania infantum and Leishmania donovani strains. […] Anti-leishmanial drugs miltefosine and pentamidine were used as standards for comparison purpose.
L. donovani promastigote inhibition potency of these reported β-carboline derivatives was determined by Alamar blue assay method.
(§3) L. donovanipromastigotes were cultured at 37 °C in M199 medium supplemented with 10% heat-inactivated fetal calf serum. L. infantum JPCM5 MCAN/ES/98/LLM-87 promastigotes were cultured at 26 °C in modified Eagle’s medium (HOMEM). Parasites were incubated with serial dilutions of compounds for 72 h, followed by Alamar blue-based assay as previously described.

[3] = system: L. infantum JPCM5 MCAN/ES/98/LLM-87 promastigotes; experiment: L. infantum promastigote assay (Alamar blue); type: cell-based, Leishmania infantum; settings: for S.I (CC50/IC50), L. infantum promastigote: HeLa CC50 / L. infantum promastigote EC50; for EC50: 72 h, Alamar blue
Protocol: as §2
Anti-promastigote activity of these reported β-carboline derivatives was determined by Alamar blue assay method.
as §3

[4] = system: L. infantum JPCM5 MCAN/ES/98/LLM-87 axenic amastigotes; experiment: L. infantum axenic amastigote assay (Alamar blue); type: cell-based, Leishmania infantum; settings: for S.I (CC50/IC50), L. infantum axenic amastigote: HeLa CC50 / L. infantum axenic amastigote EC50; for EC50: Leishmania infantum, 72 h, Alamar blue
Protocol: Alamar blue assay method was used to determine inhibition potential of these β-carboline derivatives against (human life stage forms) axenic amastigotes.
as §1

[5] = HeLa cell cytotoxicity, Alamar blue assay; type: cell-based; settings: human; HeLa cells, ~65 h incubation plus 5 h Alamar Blue
Protocol: HeLa cell cytotoxicity studies were carried out as described previously. Briefly, the cells were cultured in DMEM supplemented with 10% fetal calf serum and 2 mM L-glutamine. Cells were plated at initial cell concentration of 2 × 10^4 cells/well and incubated with the compounds for ∼65 h prior to addition of Alamar Blue solution for further 5 h.

[6] = system: L. donovani LdBOB intracellular amastigotes in PMA differentiated THP-1 cells; experiment: Intra macrophage L. donovani (amastigote) assay in THP-1 cells; type: cell-based, Leishmania donovani; settings: for S.I (CC50/IC50), L. donovani intracellular amastigote: HeLa CC50 / L. donovani intracellular amastigote EC50; for EC50: Leishmania donovani, THP-1, 72 h, THP-1 macrophages, 72 h, microscopy readout
Protocol: Although, axenic amastigotes assay most commonly used to screen new leishmanial agents are different from intracellular amastigotes in terms of protein expression and drug susceptibility. […] THP-1 (human monocytic leukemia) cells were a kind gift from Dr Susan Wylie (Dundee) and maintained in minimal essential medium plus 10% (vol/vol) FBS. […] Briefly, THP-1 cells (20,000 per well, 200 μL) were plated into 96 well plates in presence of 10 nM PMA and incubated at 37 °C in 5% CO2 atmosphere for 75 h. […] Any remaining extracellular amastigotes were removed and the adhered cells were washed with the same supplemented PBS solution as above. Pre-aliquoted compounds in a serial dilution were added from another plate, such that the total well volume was 200 μL and incubated for further 72 h. Cells were fixed with 100% methanol, stained with Giemsa and examined microscopically.

[7] = introduction statement; cited from earlier work

EC50 [1] [µM]	EC50 [2] [µM]	EC50 ([3]; Leishmania infantum) [µM]	EC50 [4] [µM]	melting point [°C]	EC50 [6] [µM]	EC50 [3] [µM]	Compound	S.I (CC50/IC50), L. donovani axenic amastigote [1]	S.I (CC50/IC50), L. donovani promastigote [2]	S.I (CC50/IC50), L. infantum promastigote [3]	S.I (CC50/IC50), L. infantum axenic amastigote [4]	CC50 [5] [µM]	S.I (CC50/IC50), L. donovani intracellular amastigote [6]	half-life [7] [h]
3.8 ± 0.5	5.02 ± 0.36	1.47 ± 0.32	1.9 ± 0.2	160 to 162	6.3 ± 0.3		Cn1c2ccccc2c2cc(C(=O)N3CCN(c4ccc(Cl)cc4)CC3)nc(-c3ccccc3)c21 [7g, (4-(4-chlorophenyl)piperazin-1-yl)(9-methyl-1-phenyl-9H-pyrido[3,4-b]indol-3-yl)methanone]	131.6	>99.6	>340.1	>263.2	> 500	79.4	
7.5 ± 0.4	13.1 ± 1.5	19.7 ± 1.7	14.6 ± 2.9	200 to 202	15.4 ± 0.9		Cn1c2ccccc2c2cc(C(=O)N3CCN(c4ccc([N+](=O)[O-])cc4)CC3)nc(-c3ccccc3)c21 [7j, (9-methyl-1-phenyl-9H-pyrido[3,4-b]indol-3-yl)(4-(4-nitrophenyl)piperazin-1-yl)methanone]	66.7	>38.2	>25.3	>34.2	> 500	32.5	
9.3 ± 0.5	12.4 ± 1.4	17.2 ± 0.82	15 ± 1.3	188 to 190	10.1 ± 1.1		Cn1c2ccccc2c2cc(C(=O)N3CCN(c4ccc(F)cc4)CC3)nc(-c3ccccc3)c21 [7k, (4-(4-fluorophenyl)piperazin-1-yl)(9-methyl-1-phenyl-9H-pyrido[3,4-b]indol-3-yl)methanone]	53.8	>40.3	>29.1	>33.3	> 500	49.5	
2.8 ± 0.4	3.12 ± 0.16	12.4	4.8 ± 0.8		6.4 ± 0.3	12.6 ± 1.1	CCCCCCCCCCCCCCCCOP(=O)([O-])OCC[N+](C)(C)C [Miltefosine, reference compound]							150
